# Test results reported in patent publication US5349127A, “Expression of herbicide metabolizing cytochromes P450” (priority 1992, dated 1994).
# Columns and labels:
# [1] = Incubation buffer without cells, time 0 (Examples 5-9, 11, 12); type: in vitro ADME; settings: no cells, 0 h
# Procedure: A 100 ml culture of S. griseolus ATCC 11796 in sporulation broth and a 50 ml culture of S. lividans transformed with pCAO400 in YEME broth were prepared and incubated for 24 hours as described. At that time, the S. griseolus culture was split into two 50 ml aliquots into two separate flasks and 25 ml of fresh sporulation broth was added to each and 9 mg of […] was added to one of these cultures to induce cytochrome P450SU1 expression. Fresh YEME broth (25 ml) was added to the S. lividans culture. After an additional 6 hours growth at 30° C., the cells in each culture were harvested as described above, washed twice with MOPS (50 mM, pH 7.2) and recentrifuged. The cell pellets were resuspended in four cell volumes of MOPS (50 mM, pH 7.2) containing 0.2% glucose and about 100 μg/ml of 10004. These cell suspensions were incubated at 30° C. with shaking and aliqouts were taken at 2 and 5.5 hours. The supernatant of each aliquot was analyzed by HPLC and the concentrations of the sulfonylurea compound 10004 and its metabolite 10005 were determined.
# S. lividans transformed respectively with pCAO200SU1-FeS-B#9, pCAO200SU#112and pCAO200 were cultured for 36 hours in 400 ml of YEME broth at 30° C. S. griseolus ATCC 11796 was similarly cultured in 400 ml of sporulation broth. Six hours before harvesting the cells, 150 ml of fresh YEME broth was added to the S. lividans cells, and the S. griseolus cells were split into two 200 ml cultures with 100 ml of fresh sporulation broth added to each. 10001 (36 mg) was added to one of the two S. griseolus cultures to induce cytochrome P450SU1. The cells were prepared as described above in Example 5 and the concentrations of the sulfonylurea compound 10006 and its metabolites 10007, 10008 or 10009 were determined.
# S. lividans transformed with pCAO200SU2-FeS-A#11 and S. lividans transformed with pCAO200 were cultured for 36 hours in 400 ml of YEME broth at 30° C. S. griseolus PH2001 (mutant without SU1) was cultured in 400 ml of sporulation broth at 30° C. Nine hours before harvesting the cells, the S. griseolus PH2001 culture was divided into two 200 ml cultures. Both received 100 ml of fresh sporulation broth and one received 36 mg of 10001 to induce cytochrome P450SU2. The cells were prepared as described above in Example 6 and the concentrations of the sulfonylurea compound 10001 and its metabolites 10002 and 10003 were determined.
# [2] = test system: S. lividans pCAO200SU1-FeS-B#9; experiment: Sulfonylurea metabolism by washed cell suspension (Examples 6-9); type: in vitro ADME, Streptomyces lividans
# S. lividans PH3822 = experiment: Metabolism of 10001 by strains transformed with pPAT108 (Example 14); type: in vitro ADME, Streptomyces lividans; settings: substrate 10001 120 ug/ml
# Procedure: (§1) S. griseolus PH2003, S. griseus PH4001, S. ambofaciens PH4002, and S. lividans JI1326 were transformed with the plasmid pPAT108. The transformed S. griseolus strain, PH3826, was cultured for 24 hours in 150 mls of sporulation broth with 5 ug/ml thiostrepton. The transformed S. griseus strain, PH3832, and the transformed S. ambofaciens strain, PH3834, were cultured for 24 hours in 150 mls of trypticase soy broth with 5 ug/ml thiostrepton. The transformed S. lividans strain, PH3822, was similarly cultured in 150 mls of YEME broth with 5 ug/ml thiostrepton. Three hours before harvesting the cells, 50 mls of fresh medium of the same type with 5 ug/ml thiostrepton was added to each culture. The cells from each of the cultures were harvested by centrifugation, washed twice with 50 mMMOPS, pH7.2 and resuspended in five cell volumes of MOPS containing 0.2% glucose and 120 ug/ml of the sulfonylurea 10001. The cell suspensions were incubated at 30° C. with shaking and aliquots were removed at 0.5, 1, 2 and 4 hours. The supernatant of each aliquot was analyzed by HPLC and the concentration of the sulfonylurea compound 10001 and its metabolites 10002 and 10003 were determined.
# S. griseus PH3817 = experiment: Metabolism of 10001 by strains transformed with pCS325 (Example 15); type: in vitro ADME, Streptomyces griseus; settings: substrate 10001
# Procedure: as §1
# (§2) S. griseolus PH2003, S. griseus PH4001, S. ambofaciens PH4002, and S. lividans JI1326 were transformed with the plasmid pCS325. Cells of the transformed strains of S. griseolus PH3809, S. griseus PH3817, S. ambofaciens PH3818, and S. lividans PH3816, were grown and treated as described in Example 14, and the concentrations of the sulfonylurea compound 10001 and its metabolites 10002 and 10003 were determined.
# S. lividans PH3816 = experiment: as above; type: in vitro ADME, Streptomyces lividans; settings: substrate 10001
# Procedure: as §1, §2
structure (smiles),measurement,setting,value
"COC(=O)c1ccccc1S(=O)(=O)NC(=O)Nc1nc(C)cc(C)n1 [compound 10010, N-[(4,6-dimethylpyrimidin-2-yl)aminocarbonyl]-2-methoxycarbonylbenzenesulfonamide]",concentration in supernatant,"[1]; Example 7, substrate 10010",87 µM
same,concentration in supernatant,"[1]; Example 12, substrate 10010",88 µM
same,concentration in supernatant,"[2]; substrate 10010, 2 h",35 µM
same,concentration in supernatant,"[2]; substrate 10010, 4 h",11 µM
same,concentration in supernatant,"[2]; substrate 10010, 6 h",4 µM
"COc1cc(Cl)nc(NC(=O)NS(=O)(=O)c2ccccc2C(=O)O)n1 [compound 10003, N-[(4-chloro-6-methoxy-pyrimidin-2-yol)aminocarbonyl]-2-carboxybenzenesulfonamide]",concentration in supernatant,"[1]; Example 8, substrate 10001",0 µM
same,concentration in supernatant,"[1]; Example 11, substrate 10001",0 µM
same,concentration in supernatant,"[2]; substrate 10001, 2 h",86 µM
same,concentration in supernatant,"[2]; substrate 10001, 4 h",95 µM
same,concentration in supernatant,"[2]; substrate 10001, 6 h",94 µM
same,concentration in supernatant,S. lividans PH3822; 0.5 h,1 µM
same,concentration in supernatant,S. lividans PH3822; 1.0 h,3 µM
same,concentration in supernatant,S. lividans PH3822; 2.0 h,5 µM
same,concentration in supernatant,S. lividans PH3822; 4.0 h,15 µM
same,concentration in supernatant,S. griseus PH3817; 0.5 h,3 µM
same,concentration in supernatant,S. griseus PH3817; 1.0 h,7 µM
same,concentration in supernatant,S. griseus PH3817; 2.0 h,16 µM
same,concentration in supernatant,S. griseus PH3817; 4.0 h,23 µM
same,concentration in supernatant,S. lividans PH3816; 0.5 h,1 µM
same,concentration in supernatant,S. lividans PH3816; 1.0 h,3 µM
same,concentration in supernatant,S. lividans PH3816; 2.0 h,7 µM
same,concentration in supernatant,S. lividans PH3816; 4.0 h,11 µM
"CCOC(=O)c1ccccc1S(=O)(=O)NC(=O)Nc1nc(O)cc(Cl)n1 [compound 10002, N-[(4-chloro-6-hydroxy-pyrimidin-2-yl)aminocarbonyl]-2-ethoxycarbonylbenzenesulfonamide]",concentration in supernatant,"[2]; substrate 10001, 2 h",105 µM
same,concentration in supernatant,"[2]; substrate 10001, 4 h",116 µM
same,concentration in supernatant,"[2]; substrate 10001, 6 h",112 µM
same,concentration in supernatant,S. lividans PH3822; 0.5 h,2 µM
same,concentration in supernatant,S. lividans PH3822; 1.0 h,5 µM
same,concentration in supernatant,S. lividans PH3822; 2.0 h,10 µM
same,concentration in supernatant,S. lividans PH3822; 4.0 h,25 µM
same,concentration in supernatant,S. griseus PH3817; 0.5 h,37 µM
same,concentration in supernatant,S. griseus PH3817; 1.0 h,73 µM
same,concentration in supernatant,S. griseus PH3817; 2.0 h,167 µM
same,concentration in supernatant,S. griseus PH3817; 4.0 h,220 µM
same,concentration in supernatant,S. lividans PH3816; 0.5 h,19 µM
same,concentration in supernatant,S. lividans PH3816; 1.0 h,36 µM
same,concentration in supernatant,S. lividans PH3816; 2.0 h,68 µM
same,concentration in supernatant,S. lividans PH3816; 4.0 h,103 µM
"CCOC(=O)c1ccccc1S(=O)(=O)NC(=O)Nc1nc(Cl)cc(OC)n1 [compound 10001, N-[(4-chloro-6-methoxy-pyrimidin-2-yl)aminocarbonyl]-2-ethoxycarbonylbenzenesulfonamide]",concentration in supernatant,"[1]; Example 8, substrate 10001",291 µM
same,concentration in supernatant,"[1]; Example 11, substrate 10001",279 µM
same,concentration in supernatant,"[2]; substrate 10001, 2 h",28 µM
same,concentration in supernatant,"[2]; substrate 10001, 4 h",0 µM
same,concentration in supernatant,"[2]; substrate 10001, 6 h",0 µM
same,concentration in supernatant,S. lividans PH3822; 0.5 h,294 µM
same,concentration in supernatant,S. lividans PH3822; 1.0 h,284 µM
same,concentration in supernatant,S. lividans PH3822; 2.0 h,262 µM
same,concentration in supernatant,S. lividans PH3822; 4.0 h,232 µM
same,concentration in supernatant,S. griseus PH3817; 0.5 h,226 µM
same,concentration in supernatant,S. griseus PH3817; 1.0 h,181 µM
same,concentration in supernatant,S. griseus PH3817; 2.0 h,69 µM
same,concentration in supernatant,S. griseus PH3817; 4.0 h,0 µM
same,concentration in supernatant,S. lividans PH3816; 0.5 h,331 µM
same,concentration in supernatant,S. lividans PH3816; 1.0 h,339 µM
same,concentration in supernatant,S. lividans PH3816; 2.0 h,299 µM
same,concentration in supernatant,S. lividans PH3816; 4.0 h,248 µM
